{"source": "ChEMBL document CHEMBL3862020", "about": "“A fluorescent analogue of tauroursodeoxycholic acid reduces ER stress and is cytoprotective” (Bioorg Med Chem Lett, 2016)", "key": {"Huh-7 [1]": {"tested_on": "Huh-7", "assay": "Cytoprotective activity against tunicamycin-induced ER stress in human HuH7 cells assessed as inhibition of CHOP mRNA levels after 6 hrs", "format": "functional, cell-based"}, "Huh-7 [2]": {"tested_on": "Huh-7", "assay": "Cytoprotective activity against tunicamycin-induced ER stress in human HuH7 cells assessed as reduction in XBPs/XBPu ratio after 6 hrs", "format": "functional, cell-based"}, "[3]": {"assay": "Cytotoxicity against HEK293 cells assessed as reduction in cell viability by MTT assay", "format": "toxicity, cell-based", "details": "human"}, "Huh-7 [4]": {"tested_on": "Huh-7", "assay": "Cytoprotective activity against tunicamycin-induced ER stress in human HuH7 cells assessed as inhibition of XBPs mRNA levels after 6 hrs", "format": "functional, cell-based"}, "Huh-7 [5]": {"tested_on": "Huh-7", "assay": "Cytoprotective activity against tunicamycin-induced ER stress in human HuH7 cells assessed as increase in XBPu mRNA levels after 6 hrs", "format": "functional, cell-based"}, "Huh-7 [6]": {"tested_on": "Huh-7", "assay": "Cytoprotective activity against DCA-induced ER stress in human HuH7 cells assessed as inhibition of XBPs mRNA levels after 6 hrs", "format": "functional, cell-based"}, "Huh-7 [7]": {"tested_on": "Huh-7", "assay": "Cytoprotective activity against DCA-induced cell death in human HuH7 cells assessed as increase in cell viability at 1 mM preincubated with cells followed by DCA addition measured after 24 hrs by MTT/INCELL assay", "format": "functional, cell-based"}, "Huh-7 [8]": {"tested_on": "Huh-7", "assay": "Cytoprotective activity against DCA-induced ER stress in human HuH7 cells assessed as increase in XBPu mRNA levels after 6 hrs", "format": "functional, cell-based"}, "Huh-7 [9]": {"tested_on": "Huh-7", "assay": "Cytoprotective activity against tunicamycin-induced ER stress in human HuH7 cells assessed as inhibition of BIP/GRP78 mRNA levels after 6 hrs", "format": "functional, cell-based"}, "[10]": {"assay": "Cytotoxicity against human HuH7 cells assessed as reduction in cell viability by MTT assay", "format": "toxicity, cell-based", "details": "huh-7"}, "Huh-7 [11]": {"tested_on": "Huh-7", "assay": "Cytoprotective activity against tunicamycin-induced ER stress in human HuH7 cells assessed as inhibition of BIP/GRP78 mRNA levels at 1mM after 6 hrs", "format": "functional, cell-based"}, "Huh-7 [12]": {"tested_on": "Huh-7", "assay": "Cytoprotective activity against DCA-induced cell death in human HuH7 cells assessed as increase in cell viability at 500 uM preincubated with cells followed by DCA addition measured after 24 hrs by MTT/INCELL assay", "format": "functional, cell-based"}, "Huh-7 [13]": {"tested_on": "Huh-7", "assay": "Cytoprotective activity against DCA-induced ER stress in human HuH7 cells assessed as inhibition of […] mRNA levels after 6 hrs", "format": "functional, cell-based"}}, "note": "Activity calls are given as the source filed them. No cut-off for these calls is given here.", "data": [{"smiles": "C[C@H](CCC(=O)NCCS(=O)(=O)O)[C@H]1CC[C@H]2[C@@H]3[C@@H](O)C[C@@H]4C[C@H](O)CC[C@]4(C)[C@H]3CC[C@]12C", "note": "[TAURURSODIOL]", "values": [{"measurement": "inhibition", "setting": "Huh-7 [1]", "result": "Active"}, {"measurement": "Activity", "setting": "Huh-7 [2]", "result": "Active"}, {"measurement": "Activity", "setting": "[3]", "result": "Non-Toxic"}, {"measurement": "inhibition", "setting": "Huh-7 [4]", "result": "Active"}, {"measurement": "Activity", "setting": "Huh-7 [5]", "result": "Active"}, {"measurement": "inhibition", "setting": "Huh-7 [6]", "result": "Active"}, {"measurement": "Activity", "setting": "Huh-7 [7]", "result": "Active"}, {"measurement": "Activity", "setting": "Huh-7 [8]", "result": "Active"}, {"measurement": "inhibition", "setting": "Huh-7 [9]", "result": "Active"}, {"measurement": "Activity", "setting": "[10]", "result": "Non-Toxic"}]}, {"smiles": "C[C@H](CCC(=O)O)[C@H]1CC[C@H]2[C@@H]3[C@@H](O)C[C@@H]4C[C@H](O)CC[C@]4(C)[C@H]3CC[C@]12C", "values": [{"measurement": "inhibition", "setting": "Huh-7 [11]", "result": "Active"}]}, {"smiles": "C[C@H](CCC(=O)NCCS(=O)(=O)O)[C@H]1CC[C@H]2[C@@H]3[C@@H](O)C[C@@H]4C[C@H](NS(=O)(=O)c5cccc6c(N(C)C)cccc56)CCC4(C)[C@H]3CC[C@]12C", "note": "(single isomer, unassigned)", "values": [{"measurement": "inhibition", "setting": "Huh-7 [1]", "result": "Active"}, {"measurement": "Activity", "setting": "Huh-7 [2]", "result": "Active"}, {"measurement": "Activity", "setting": "[3]", "result": "Non-Toxic"}, {"measurement": "inhibition", "setting": "Huh-7 [4]", "result": "Active"}, {"measurement": "Activity", "setting": "Huh-7 [12]", "result": "Active"}, {"measurement": "Activity", "setting": "Huh-7 [5]", "result": "Active"}, {"measurement": "inhibition", "setting": "Huh-7 [6]", "result": "Active"}, {"measurement": "Activity", "setting": "Huh-7 [8]", "result": "Active"}, {"measurement": "inhibition", "setting": "Huh-7 [9]", "result": "Active"}, {"measurement": "Activity", "setting": "[10]", "result": "Non-Toxic"}, {"measurement": "inhibition", "setting": "Huh-7 [13]", "result": "Active"}]}]}
